Experimental data published in the supplement of paper PMC13380429.

Key:
Settings in all cases: 72 h
HepG2 [1] = assay: drug sensitivity score (DSS) for viability; higher = more toxic; extreme values may be limits of the assay
U2OS [2] = assay: as above
Vero E6 [3] = assay: as above
Caco-2 [4] = assay: as above
Calu-3 [5] = assay: as above
HepG2 [6] = assay: cell viability relative to DMSO; higher = less toxic
U2OS [7] = assay: as above
Vero E6 [8] = assay: as above
Caco-2 [9] = assay: as above
Calu-3 [10] = assay: as above
HepG2 [11] = assay: relative viability EC50 (midpoint between 100% and the lowest measured viability); higher = less toxic
U2OS [12] = assay: as above
Vero E6 [13] = assay: as above
Caco-2 [14] = assay: as above
Calu-3 [15] = assay: as above

| SMILES | drug sensitivity score (HepG2 [1]) | drug sensitivity score (U2OS [2]) | drug sensitivity score (Vero E6 [3]) | drug sensitivity score (Caco-2 [4]) | drug sensitivity score (Calu-3 [5]) | cell viability (HepG2 [6]; 1 nM) [%] | cell viability (HepG2 [6]; 10 nM) [%] | cell viability (HepG2 [6]; 100 nM) [%] | cell viability (HepG2 [6]; 1000 nM) [%] | cell viability (HepG2 [6]; 10000 nM) [%] | cell viability (U2OS [7]; 1 nM) [%] | cell viability (U2OS [7]; 10 nM) [%] | cell viability (U2OS [7]; 100 nM) [%] | cell viability (U2OS [7]; 1000 nM) [%] | cell viability (U2OS [7]; 10000 nM) [%] | cell viability (Vero E6 [8]; 1 nM) [%] | cell viability (Vero E6 [8]; 10 nM) [%] | cell viability (Vero E6 [8]; 100 nM) [%] | cell viability (Vero E6 [8]; 1000 nM) [%] | cell viability (Vero E6 [8]; 10000 nM) [%] | cell viability (Caco-2 [9]; 1 nM) [%] | cell viability (Caco-2 [9]; 10 nM) [%] | cell viability (Caco-2 [9]; 100 nM) [%] | cell viability (Caco-2 [9]; 1000 nM) [%] | cell viability (Caco-2 [9]; 10000 nM) [%] | cell viability (Calu-3 [10]; 1 nM) [%] | cell viability (Calu-3 [10]; 10 nM) [%] | cell viability (Calu-3 [10]; 100 nM) [%] | cell viability (Calu-3 [10]; 1000 nM) [%] | cell viability (Calu-3 [10]; 10000 nM) [%] | relative viability EC50 (HepG2 [11]) [µM] | relative viability EC50 (U2OS [12]) [µM] | relative viability EC50 (Vero E6 [13]) [µM] | relative viability EC50 (Caco-2 [14]) [µM] | relative viability EC50 (Calu-3 [15]) [µM] |
| --- | --- | --- | --- | --- | --- | --- | --- | --- | --- | --- | --- | --- | --- | --- | --- | --- | --- | --- | --- | --- | --- | --- | --- | --- | --- | --- | --- | --- | --- | --- | --- | --- | --- | --- | --- |
| O=C(O[C@H]1CN2CCC1CC2)N(Cc1cc(F)c(F)c(F)c1)c1cccc(F)c1 [tarafenacin] | 0 | 0 | 0 | 0 | 0 | 115 | 106 | 108 | 96.5 | 99.3 | 95.7 | 102 | 100 | 103 | 91.3 | 99.7 | 99.6 | 107 | 98.7 | 90.2 | 102 | 96.5 | 91.3 | 104 | 95.7 | 96.4 | 106 | 106 | 113 | 96.2 | > 10 | > 10 | > 10 | > 10 | > 10 |
| CC[C@H]1OC(=O)[C@H](C)C(=O)[C@H](C)[C@@H](O[C@@H]2O[C@H](C)C[C@H](N(C)C)[C@H]2O)[C@](C)(OC)C[C@@H](C)C(=O)[C@H](C)[C@H]2N(CCCCn3cnc(-c4cccnc4)c3)C(=O)O[C@]12C [telithromycin] | 0 | 0 | 0 | 0 | 0 | 105 | 96.6 | 103 | 101 | 109 | 88 | 95.4 | 95 | 95.2 | 97 | 98.1 | 98.9 | 96.1 | 96.1 | 106 | 100 | 99.5 | 100 | 104 | 89 | 107 | 101 | 89 | 99.8 | 100 | > 10 | > 10 | > 10 | > 10 | > 10 |
| CC(C)OC(=O)OCOP(=O)(CO[C@H](C)Cn1cnc2c(N)ncnc21)OCOC(=O)OC(C)C [tenofovir-disoproxil] | 5.6 | 0 | 0 | 0 | 1 | 102 | 101 | 109 | 82.2 | 44.6 | 96.2 | 101 | 92.6 | 103 | 95.8 | 102 | 94.9 | 96 | 94.3 | 96.7 | 96.3 | 93 | 93.8 | 97.2 | 89 | 97.1 | 104 | 97.1 | 95.4 | 80.8 | 1.35 | > 10 | > 10 | > 10 | > 10 |
| CN1C(C(=O)Nc2ccccn2)=C(O)c2sccc2S1(=O)=O [tenoxicam] | 0 | 0 | 0 | 0 | 0 | 94.9 | 96 | 96.5 | 88.5 | 101 | 93.3 | 94.4 | 93.1 | 97 | 93.1 | 98.5 | 96.2 | 103 | 98.7 | 99.8 | 98 | 102 | 96.2 | 98.6 | 92.6 | 99.3 | 102 | 90.7 | 106 | 98.2 | > 10 | > 10 | > 10 | > 10 | > 10 |
| Cc1ncc(C[n+]2csc(CCO)c2C)c(N)n1 [thiamine] | 0 | 0 | 0 | 0 | 0 | 96 | 103 | 96.2 | 105 | 88.2 | 104 | 104 | 102 | 105 | 99.1 | 95.7 | 108 | 98.4 | 102 | 99.7 | 107 | 103 | 100 | 96.9 | 102 | 104 | 91.6 | 99.6 | 104 | 105 | > 10 | > 10 | > 10 | > 10 | > 10 |
| O=c1n(CCCN2CCN(c3cccc(Cl)c3)CC2)nc2ccccn12 [trazodone] | 0 | 0 | 0 | 0 | 0 | 95.8 | 99 | 94.1 | 108 | 91 | 102 | 104 | 98.5 | 97.2 | 98.3 | 98.8 | 101 | 95.6 | 103 | 101 | 99.5 | 98.2 | 97.5 | 89.6 | 96.4 | 105 | 92.4 | 95.1 | 79.7 | 99.3 | > 10 | > 10 | > 10 | > 10 | > 10 |
| O=C(Nc1ccc(Cl)cc1)Nc1ccc(Cl)c(Cl)c1 [triclocarban] | 0 | 0 | 0 | 0 | 0 | 90 | 88.1 | 99.6 | 98.1 | 97.1 | 92.6 | 96.5 | 94.2 | 102 | 97.2 | 101 | 89.4 | 103 | 86.8 | 95.4 | 82.8 | 59.4 | 94.2 | 104 | 87.9 | 97.2 | 93.3 | 97.3 | 88.8 | 100 | > 10 | > 10 | > 10 | > 10 | > 10 |
| COc1cc(C(=O)NCc2ccc(OCCN(C)C)cc2)cc(OC)c1OC [trimethobenzamide] | 0 | 0 | 0 | 0 | 0 | 98.2 | 106 | 99.5 | 101 | 107 | 97.6 | 93.8 | 102 | 97.4 | 100 | 96.1 | 99.7 | 93.2 | 99.1 | 99.9 | 95.9 | 94.3 | 99.2 | 87.8 | 99.7 | 103 | 84.6 | 98.2 | 93.6 | 101 | > 10 | > 10 | > 10 | > 10 | > 10 |
| O=C(O)c1ccccc1NCCc1ccccc1 [tromaril] | 0 | 0 | 0 | 0 | 0 | 102 | 101 | 93.8 | 104 | 95 | 102 | 102 | 101 | 96.4 | 101 | 97.5 | 99.5 | 99 | 102 | 95.5 | 97 | 97 | 96.9 | 96.2 | 102 | 106 | 94.5 | 99.3 | 90.1 | 106 | > 10 | > 10 | > 10 | > 10 | > 10 |
| N#C/C(=C\c1ccc(O)c(O)c1)C(N)=O [tyrphostin-AG-99] | 0 | 0 | 0 | 0 | 0 | 96.3 | 112 | 104 | 110 | 102 | 100 | 94.7 | 102 | 105 | 100 | 94 | 98.6 | 98.3 | 93.4 | 107 | 96.9 | 92.5 | 96.4 | 92.2 | 103 | 102 | 97.2 | 103 | 111 | 112 | > 10 | > 10 | > 10 | > 10 | > 10 |
| CCOC(N)=O [urethane] | 0 | 0 | 0 | 0 | 0 | 95.8 | 106 | 85 | 97.4 | 105 | 101 | 102 | 97.6 | 104 | 97.9 | 98.9 | 96.7 | 98 | 100 | 104 | 93.5 | 97.3 | 98.4 | 95.5 | 102 | 105 | 103 | 90.5 | 107 | 112 | > 10 | > 10 | > 10 | > 10 | > 10 |
| CC(C)[C@H](N)C(=O)OCCOCn1cnc2c(=O)nc(N)[nH]c21 [valaciclovir] | 0 | 0 | 0 | 0 | 0 | 103 | 92.5 | 104 | 99.5 | 101 | 94 | 101 | 96 | 105 | 110 | 90.1 | 92 | 86.5 | 86.1 | 105 | 103 | 96 | 104 | 99.4 | 104 | 103 | 98.8 | 88.4 | 111 | 90.3 | > 10 | > 10 | > 10 | > 10 | > 10 |
| COc1ccc(CCN(C)CCCN2CCc3cc(OC)c(OC)cc3CC2=O)cc1OC [zatebradine] | 0 | 0 | 0 | 0 | 0 | 105 | 99.4 | 100 | 103 | 97.7 | 101 | 94.5 | 99.1 | 97.6 | 97.6 | 94.1 | 98.4 | 93.4 | 96 | 88 | 97.2 | 90.5 | 92.9 | 99.6 | 94.4 | 97 | 100 | 92.9 | 105 | 94.2 | > 10 | > 10 | > 10 | > 10 | > 10 |
| CN(C)CCc1c[nH]c2ccc(C[C@H]3COC(=O)N3)cc12 [zolmitriptan] | 0 | 0 | 0 | 0 | 0 | 112 | 111 | 99 | 87.6 | 111 | 99 | 99.7 | 96.8 | 103 | 96.9 | 108 | 98.3 | 106 | 106 | 104 | 96.9 | 102 | 96.8 | 110 | 97.8 | 92.2 | 94.2 | 95.2 | 93.2 | 97 | > 10 | > 10 | > 10 | > 10 | > 10 |
